The record followed here is patent US11759474B2, “Use of SGLT-2 inhibitors in the drying-off of non-human mammals” (Boehringer Ingelheim Vetmedica GmbH, priority 2020, dated 2023).

The subject of data set [1] is lactating Holstein-Frisian cows. As to the kind of experiment: Milk yield per milking after single i.v. dosing in lactating cows. The format is in vivo. The following applies: i.v. 0.03, 0.3, 3 mg/kg bodyweight after AM milking; PM milking about 8 hours after administration; FIG. 2. As for the experimental part: (§1) Velagliflozin treatment is tested in n=4 lactating Holstein-Frisian cows. In weekly intervals, velagliflozin is administered intravenously (i.v.) in increasing doses (0.03 mg/kg bodyweight-0.3 mg/kg bodyweight-3 mg/kg bodyweight) in the morning after AM (ante meridian) milking into the right jugular vein in a volume of 2.5 ml of a propylene glycol based solution per 100 kg body weight. Blood samples for determination of velagliflozin plasma levels and urine samples for determination of glucose and creatinine levels are collected one day prior to treatment and ˜8 hours, ˜24 hours and ˜48 hours post treatment and stored frozen until being analysed. Blood glucose and ketone body (beta-hydroxy-butyrate) concentrations are determined immediately after blood collection at the same time points. The total urinary creatinine excreted per day is rather constant in mammals, thus, since urine volume was not determined, the glucose to creatinine ratio was calculated as a surrogate of the total glucose excretion. All animals are milked twice daily, in the morning (ante meridian—AM) and in the late afternoon (post meridian—PM). Throughout the study, milk yield is recorded as kg per animal per milking.

The test system is the same in data set [2]. As to the kind of experiment: Urinary glucose excretion normalized to urinary creatinine after single i.v. dosing in lactating cows. It counts as in vivo. Particulars: i.v. 0.03, 0.3, 3 mg/kg bodyweight; urine ~8 h, ~24 h, ~48 h post treatment; FIG. 1. The method, then: as §1
A short description of data set [3]: Velagliflozin plasma levels after single i.v. dosing in lactating cows. It counts as in vivo, Holstein-Frisian cows. The following applies: i.v. 0.03, 0.3, 3 mg/kg bodyweight, n=4 lactating cows; FIG. 1. As for the experimental part:
as §1

A short description of data set [4]: Blood glucose and ketone body (beta-hydroxy-butyrate) concentrations after treatment in lactating cows. The following applies: after treatment with all dosages (0.03, 0.3, 3 mg/kg bodyweight i.v.). The format is in vivo, Holstein-Frisian cows. The method, then: as §1

The structures appear in SMILES notation.

For `N#Cc1ccc([C@@H]2O[C@H](CO)[C@@H](O)[C@H](O)[C@H]2O)cc1Cc1ccc(C2CC2)cc1` [velagliflozin, Velagliflozin], the “milk yield of the subsequent milking (PM)” value in data set [1] is listed as “decreases in a dose/exposure dependent manner”. Moreover, in data set [2], the “urinary glucose excretion normalized to urinary creatinine” value is on record as “increases in a dose/exposure dependent manner”. Further, in data set [3], the Velagliflozin plasma level entry is “linear dose to exposure relationship”. In addition, the blood glucose level entry in data set [4] is “within normal reference ranges”. Also, the ketone body level result in data set [4] (beta-hydroxy-butyrate) is “within normal reference ranges”.
